Assay results: patent US10202361B2, “Pyridazinones as herbicides” (E I DU PONT DE NEMOURS AND COMPANY, priority 2014, dated 2019)

Experiments:
Experiment in all cases: Test D pre-/postemergence controlled growth environment herbicide test
Type in all cases: in vivo
Conditions in all cases: scale 0 to 100
[1] = system: downy bromegrass (Bromus tectorum)
Procedure, shortened: (§1)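 Pre-emergence treatment on silt loam soil and post-emergence treatment of 1- to 4-leaf plants (2–18 cm) in peat-based medium, compounds in a non-phytotoxic solvent with surfactant. Visual rating against untreated controls after 14–21 d in a controlled environment, scale 0 (no effect) to 100 (complete control).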

[2] = system: field violet (Viola arvensis)
Procedure, shortened: as §1

[3] = system: buckwheat, wild (wild buckwheat, Polygonum convolvulus)
Procedure, shortened: as §1

[4] = system: mustard, wild (wild mustard, Sinapis arvensis)
Procedure, shortened: as §1

[5] = system: wheat, spring (spring wheat, Triticum aestivum)
Procedure, shortened: as §1

[6] = system: barley, spring (spring barley, Hordeum vulgare)
Procedure, shortened: as §1

[7] = system: galium (catchweed bedstraw, Galium aparine)
Procedure, shortened: as §1

[8] = system: chamomile (scentless chamomile, Matricaria inodora)
Procedure, shortened: as §1

[9] = system: pigweed (Amaranthus retroflexus)
Procedure, shortened: as §1

[10] = system: windgrass (Apera spica-venti)
Procedure, shortened: as §1

[11] = system: wheat, winter (winter wheat, Triticum aestivum)
Procedure, shortened: as §1

COc1cc(=O)n(-c2ccc(F)cc2)nc1Cc1ccnc(C(F)(F)F)c1 [Compound 17, 2-(4-fluorophenyl)-5-methoxy-6-[[2-(trifluoromethyl)-4-pyridinyl]methyl]-3 (2H)-pyridazinone]
Plant response rating ([1]; Postemergence, 31 g ai/ha): 10 | Plant response rating ([1]; Postemergence, 62 g ai/ha): 10 | Plant response rating ([1]; Postemergence, 125 g ai/ha): 15 | Plant response rating ([1]; Postemergence, 250 g ai/ha): 25 | Plant response rating ([1]; Postemergence, 500 g ai/ha): 30 | Plant response rating ([1]; Preemergence, 31 g ai/ha): 10 | Plant response rating ([1]; Preemergence, 62 g ai/ha): 10 | Plant response rating ([1]; Preemergence, 125 g ai/ha): 15 | Plant response rating ([1]; Preemergence, 250 g ai/ha): 30 | Plant response rating ([1]; Preemergence, 500 g ai/ha): 50 | Plant response rating ([2]; Postemergence, 31 g ai/ha): 60 | Plant response rating ([2]; Postemergence, 62 g ai/ha): 70 | Plant response rating ([2]; Postemergence, 125 g ai/ha): 80 | Plant response rating ([2]; Postemergence, 250 g ai/ha): 100 | Plant response rating ([2]; Postemergence, 500 g ai/ha): 100 | Plant response rating ([2]; Preemergence, 31 g ai/ha): 75 | Plant response rating ([2]; Preemergence, 62 g ai/ha): 85 | Plant response rating ([2]; Preemergence, 125 g ai/ha): 90 | Plant response rating ([2]; Preemergence, 250 g ai/ha): 100 | Plant response rating ([2]; Preemergence, 500 g ai/ha): 100 | Plant response rating ([3]; Postemergence, 31 g ai/ha): 10 | Plant response rating ([3]; Postemergence, 62 g ai/ha): 10 | Plant response rating ([3]; Postemergence, 125 g ai/ha): 40 | Plant response rating ([3]; Postemergence, 250 g ai/ha): 75 | Plant response rating ([3]; Postemergence, 500 g ai/ha): 100 | Plant response rating ([3]; Preemergence, 31 g ai/ha): 0 | Plant response rating ([3]; Preemergence, 62 g ai/ha): 10 | Plant response rating ([3]; Preemergence, 125 g ai/ha): 30 | Plant response rating ([3]; Preemergence, 250 g ai/ha): 100 | Plant response rating ([3]; Preemergence, 500 g ai/ha): 100 | Plant response rating ([4]; Postemergence, 31 g ai/ha): 20 | Plant response rating ([4]; Postemergence, 62 g ai/ha): 50 | Plant response rating ([4]; Postemergence, 125 g ai/ha): 80 | Plant response rating ([4]; Postemergence, 250 g ai/ha): 100 | Plant response rating ([4]; Postemergence, 500 g ai/ha): 100 | Plant response rating ([4]; Preemergence, 31 g ai/ha): 100 | Plant response rating ([4]; Preemergence, 62 g ai/ha): 100 | Plant response rating ([4]; Preemergence, 125 g ai/ha): 100 | Plant response rating ([4]; Preemergence, 250 g ai/ha): 100 | Plant response rating ([4]; Preemergence, 500 g ai/ha): 100 | Plant response rating ([5]; Postemergence, 31 g ai/ha): 10 | Plant response rating ([5]; Postemergence, 62 g ai/ha): 15 | Plant response rating ([5]; Postemergence, 125 g ai/ha): 20 | Plant response rating ([5]; Postemergence, 250 g ai/ha): 20 | Plant response rating ([5]; Postemergence, 500 g ai/ha): 30 | Plant response rating ([5]; Preemergence, 31 g ai/ha): 0 | Plant response rating ([5]; Preemergence, 62 g ai/ha): 15 | Plant response rating ([5]; Preemergence, 125 g ai/ha): 30 | Plant response rating ([5]; Preemergence, 250 g ai/ha): 70 | Plant response rating ([5]; Preemergence, 500 g ai/ha): 90 | Plant response rating ([6]; Postemergence, 31 g ai/ha): 5 | Plant response rating ([6]; Postemergence, 62 g ai/ha): 10 | Plant response rating ([6]; Postemergence, 125 g ai/ha): 15 | Plant response rating ([6]; Postemergence, 250 g ai/ha): 15 | Plant response rating ([6]; Postemergence, 500 g ai/ha): 35 | Plant response rating ([6]; Preemergence, 31 g ai/ha): 15 | Plant response rating ([6]; Preemergence, 62 g ai/ha): 20 | Plant response rating ([6]; Preemergence, 125 g ai/ha): 20 | Plant response rating ([6]; Preemergence, 250 g ai/ha): 70 | Plant response rating ([6]; Preemergence, 500 g ai/ha): 90 | Plant response rating ([7]; Postemergence, 31 g ai/ha): 50 | Plant response rating ([7]; Postemergence, 62 g ai/ha): 70 | Plant response rating ([7]; Postemergence, 125 g ai/ha): 90 | Plant response rating ([7]; Postemergence, 250 g ai/ha): 98 | Plant response rating ([7]; Postemergence, 500 g ai/ha): 100 | Plant response rating ([7]; Preemergence, 31 g ai/ha): 5 | Plant response rating ([7]; Preemergence, 62 g ai/ha): 5 | Plant response rating ([7]; Preemergence, 125 g ai/ha): 20 | Plant response rating ([7]; Preemergence, 250 g ai/ha): 100 | Plant response rating ([7]; Preemergence, 500 g ai/ha): 100 | Plant response rating ([8]; Postemergence, 31 g ai/ha): 20 | Plant response rating ([8]; Postemergence, 62 g ai/ha): 40 | Plant response rating ([8]; Postemergence, 125 g ai/ha): 40 | Plant response rating ([8]; Postemergence, 250 g ai/ha): 60 | Plant response rating ([8]; Postemergence, 500 g ai/ha): 60 | Plant response rating ([8]; Preemergence, 31 g ai/ha): 0 | Plant response rating ([8]; Preemergence, 62 g ai/ha): 80 | Plant response rating ([8]; Preemergence, 125 g ai/ha): 95 | Plant response rating ([8]; Preemergence, 250 g ai/ha): 100 | Plant response rating ([8]; Preemergence, 500 g ai/ha): 100 | Plant response rating ([9]; Postemergence, 31 g ai/ha): 20 | Plant response rating ([9]; Postemergence, 62 g ai/ha): 30 | Plant response rating ([9]; Postemergence, 125 g ai/ha): 30 | Plant response rating ([9]; Postemergence, 250 g ai/ha): 70 | Plant response rating ([9]; Postemergence, 500 g ai/ha): 95 | Plant response rating ([9]; Preemergence, 31 g ai/ha): 10 | Plant response rating ([9]; Preemergence, 62 g ai/ha): 100 | Plant response rating ([9]; Preemergence, 125 g ai/ha): 100 | Plant response rating ([9]; Preemergence, 250 g ai/ha): 100 | Plant response rating ([9]; Preemergence, 500 g ai/ha): 100 | Plant response rating ([10]; Postemergence, 31 g ai/ha): 0 | Plant response rating ([10]; Postemergence, 62 g ai/ha): 5 | Plant response rating ([10]; Postemergence, 125 g ai/ha): 5 | Plant response rating ([10]; Postemergence, 250 g ai/ha): 10 | Plant response rating ([10]; Postemergence, 500 g ai/ha): 25 | Plant response rating ([10]; Preemergence, 31 g ai/ha): 80 | Plant response rating ([10]; Preemergence, 62 g ai/ha): 80 | Plant response rating ([10]; Preemergence, 125 g ai/ha): 100 | Plant response rating ([10]; Preemergence, 250 g ai/ha): 100 | Plant response rating ([10]; Preemergence, 500 g ai/ha): 100 | Plant response rating ([11]; Postemergence, 31 g ai/ha): 0 | Plant response rating ([11]; Postemergence, 62 g ai/ha): 5 | Plant response rating ([11]; Postemergence, 125 g ai/ha): 10 | Plant response rating ([11]; Postemergence, 250 g ai/ha): 10 | Plant response rating ([11]; Postemergence, 500 g ai/ha): 20 | Plant response rating ([11]; Preemergence, 31 g ai/ha): 0 | Plant response rating ([11]; Preemergence, 62 g ai/ha): 0 | Plant response rating ([11]; Preemergence, 125 g ai/ha): 0 | Plant response rating ([11]; Preemergence, 250 g ai/ha): 30 | Plant response rating ([11]; Preemergence, 500 g ai/ha): 90
